The source made the active and inactive calls. No rule for the calls is given here.
Biological target: Furin (Homo sapiens) (UniProt P09958)
Assay: human furin protease inhibitors, confirmation, biochemical, fluorescence intensity (AID 463180)
Conditions: Recombinant furin, fluorogenic substrate cleavage, at 50 µM, stronger effect = higher value

Sequence of Furin (Homo sapiens) (P09958 108-714 limits assumed): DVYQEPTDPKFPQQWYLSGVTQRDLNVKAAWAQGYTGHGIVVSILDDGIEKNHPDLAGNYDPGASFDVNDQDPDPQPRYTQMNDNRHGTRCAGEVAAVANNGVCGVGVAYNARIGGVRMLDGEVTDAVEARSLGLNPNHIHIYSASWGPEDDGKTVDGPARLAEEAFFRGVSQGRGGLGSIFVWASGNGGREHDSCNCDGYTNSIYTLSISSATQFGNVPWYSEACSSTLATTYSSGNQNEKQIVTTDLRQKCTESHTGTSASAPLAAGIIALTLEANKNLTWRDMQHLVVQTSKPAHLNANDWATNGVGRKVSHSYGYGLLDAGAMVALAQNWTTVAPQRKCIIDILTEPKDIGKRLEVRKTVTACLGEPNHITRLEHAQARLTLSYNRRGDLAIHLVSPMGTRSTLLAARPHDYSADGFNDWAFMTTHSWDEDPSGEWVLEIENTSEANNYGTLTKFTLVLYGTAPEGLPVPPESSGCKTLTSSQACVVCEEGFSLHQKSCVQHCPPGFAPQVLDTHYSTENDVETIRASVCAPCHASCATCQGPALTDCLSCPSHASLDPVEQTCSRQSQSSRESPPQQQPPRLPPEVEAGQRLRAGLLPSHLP

With Cc1c(NC(=O)c2ccc(Cl)c(S(=O)(=O)N3CCOCC3)c2)c(=O)n(-c2ccccc2)n1C the inhibition was -23.3% (inactive).

For CCOC(=O)NC(=O)CSc1nnnn1-c1ccccc1, the inhibition was -19.1% (inactive).

In the case of COc1ccc(NC(=O)Nc2ncn(Cc3cccc(C(F)(F)F)c3)n2)cc1OC, the inhibition is reported as -15.8% (inactive).

For Cc1ccccc1-n1c(O)c(C=Nc2ccc(N(C)C)cc2)c(=O)[nH]c1=O, the inhibition was 20.3%.

CC1(C)CC(=O)C(C=Nc2cccnc2/N=C/C2=C(O)CC(C)(C)CC2=O)=C(O)C1 was tested, and the inhibition was 0.675% (inactive).

CCOC(=O)C(CC)Sc1nnc(COc2ccc(C)cc2)n1-c1ccccc1 (stereo not given) was tested, and the inhibition was -0.94% (inactive).

For N#CC1=C(N)NC(SCc2ccc(Br)cc2)=C(C#N)C12CCCCC2, the inhibition was -6.5% (inactive).

Cc1ccc(SCCCCN2C(=O)NC(C)(C)C2=O)cc1 was tested, and the inhibition was -8.35% (inactive).

CCCCN1CCC(O)(c2ccccc2)C(C(=O)c2ccccc2)C1 (stereo not given) was tested, and the inhibition was -20.5% (inactive).

In the case of COC(=O)COc1ccc(S(=O)(=O)NCC2CCCO2)cc1Cl (stereo not given), the inhibition is reported as -21.4% (inactive).

With COc1ccc(N=CC2=C(O)CC(C)(C)CC2=O)cc1 the inhibition was 8.92% (inactive).

Cc1cccc(/N=C/C2=C(O)CC(C)(C)CC2=O)n1 was tested, and the inhibition was 13.1%.

CCCOc1ccc(C2NC(=O)NC2=O)cc1 (stereo not given) was tested, and the inhibition was -10.8% (inactive).

For O=C(CN1C(=O)C2C3C=CC(C3)C2C1=O)NCc1ccc2c(c1)OCO2 (stereo not given), the inhibition was -17.4% (inactive).

For CCC(C)C(NC(=O)C1CCC(C)CC1)C(=O)NCc1cccnc1 (stereo not given), the inhibition was -18.4% (inactive).

With COc1ccc(NC(=O)CSc2nncn2C)cc1OC the inhibition was -12.4% (inactive).

With CCOC(=O)c1cc(CC)sc1/N=C/C1=C(O)CCCC1=O the inhibition was -4.4% (inactive).

With CN1CCN(c2ccccc2NC(=O)c2cccc(OCc3ccccc3)c2)CC1 the inhibition was -16% (inactive).

In the case of COC(=O)c1ccc(NC2(C#N)C(=O)Nc3ccccc32)cc1 (stereo not given), the inhibition is reported as -18.6% (inactive).

For Cc1cccc(/C=C2/S/C(=N/N=C3\CC4CCC3(C)C4(C)C)NC2=O)c1 (stereo not given), the inhibition was 12.3%.

For COC(=O)C1C(=O)/C(=C/N(C)C)C(=O)CC1(C)C (stereo not given), the inhibition was 4.91% (inactive).

O=C(Cc1c[nH]c2ccccc12)N1CCc2ccccc21 was tested, and the inhibition was -24.6% (inactive).

Cc1cc(N=CC2=C(O)CC(C)(C)CC2=O)no1 was tested, and the inhibition was -1.24% (inactive).

With COc1nc(C)ccc1-c1noc(-c2ccccn2)n1 the inhibition was -16.6% (inactive).

With CC(=O)Nc1cc(-c2ccc(Cl)cc2)nn1-c1ccccc1 the inhibition was -20% (inactive).

In the case of CC1(C)CC(=O)C(/C=N/c2ccccn2)=C(O)C1, the inhibition is reported as 2.22% (inactive).

With OC1C2CN3CCN(C2)CC1(Cc1ccccc1)C3 (stereo not given) the inhibition was -20.6% (inactive).

With COC(=O)c1ccc(Cn2nc(C)c(Cl)c2C)o1 the inhibition was -14.9% (inactive).

For O=C(COc1ccc(Cl)cc1Cl)NC(=O)N1CCOCC1, the inhibition was -20.4% (inactive).

In the case of CCOC(=O)c1cc(C)sc1/N=C/C1=C(O)CCCC1=O, the inhibition is reported as -5.31% (inactive).

With CCOC(=O)C(CC)Sc1nc2c(c(=O)[nH]c(=O)n2C)n1C/C=C(/C)Cl (stereo not given) the inhibition was -19.2% (inactive).

COc1cccc(-n2nnc3c(=O)n(Cc4ccccc4Cl)cnc32)c1 was tested, and the inhibition was -14.9% (inactive).

CCCC(=O)Nc1cccc(Oc2nc(C)cc(C)c2C#N)c1 was tested, and the inhibition was -3.32% (inactive).

In the case of CCC(Sc1ncccc1C(=O)O)C(=O)N1CCCC1 (stereo not given), the inhibition is reported as -20.2% (inactive).

For COc1ccc(/C=N/n2c(=O)[nH]c3c([nH]c4ccc(C)cc43)c2=O)cc1CN1CCOCC1, the inhibition was -14% (inactive).

In the case of COc1ccc(S(=O)(=O)Nc2cc(C(C)C)c(O)cc2C)cc1, the inhibition is reported as -20.4% (inactive).

O=C(NCc1ccccc1)C1COc2ccccc2O1 (stereo not given) was tested, and the inhibition was -16.5% (inactive).

Cc1ccc(-n2nc3cc(C)c(NC(=O)c4cccnc4)cc3n2)cc1 was tested, and the inhibition was -15.7% (inactive).

In the case of CSc1n[nH]c(NCc2ccc(C)cc2)n1, the inhibition is reported as -16.7% (inactive).

With CN1/C(=C\C=C2C(=O)NC(=O)NC2=O)C(C)(C)c2ccccc21 the inhibition was 1.52% (inactive).

In the case of O=C1CC(c2ccccc2)CC(=O)C1=CN1CCCC1 (stereo not given), the inhibition is reported as 1.13% (inactive).

In the case of COc1cc(NC(=O)c2ccccc2)c(OC)cc1Cl, the inhibition is reported as -9.8% (inactive).

With CCSc1ccccc1C(=O)Nc1nncs1 the inhibition was -22.6% (inactive).

With COC(=O)c1[nH]c2cc(OC)ccc2c1NC(=O)CCN1CCCCC1 the inhibition was -14.9% (inactive).

In the case of CCCCCC(=O)N(CN1C(=O)CCC1=O)c1ccccc1, the inhibition is reported as -20.9% (inactive).

For CCN1CCS/C1=C/C=C/C1=[N+](CC)CCS1, the inhibition was 61.3%.

In the case of CCOC(=O)c1cc(C)sc1/N=C/C1C(=O)CCCC1=O, the inhibition is reported as -15.3% (inactive).

For CC1(C)CC(=O)C(C=Nc2cccnc2)=C(O)C1, the inhibition was 21.6%.

With O=C(Nc1ccccc1)N(CCN1CCOCC1)Cc1ccccc1F the inhibition was -13% (inactive).

With CNC(=O)C1CC(=O)N(CCc2ccc(OC)cc2)C(=Nc2ccc(OC)cc2)S1 (stereo not given) the inhibition was -13.8% (inactive).

In the case of Cc1ccc2nc(/C(C#N)=C/c3cn[nH]c3-c3ccc(F)cc3)[nH]c2c1, the inhibition is reported as 8.39% (inactive).

With CCn1c(C)c(CCC(=O)O)c(=O)n2nc(-c3ccccc3OC)cc12 the inhibition was -22.2% (inactive).

COC(=O)c1[nH]c2ccccc2c1NC(=O)CN1CCC(C(N)=O)(N2CCCCC2)CC1 was tested, and the inhibition was -12.8% (inactive).

For CCCCOc1ccc(-c2ncc(Cl)cn2)cc1, the inhibition was -14.4% (inactive).

With C=CCn1c(O)c(/C=N/NC(=O)c2ccncc2)c(=O)[nH]c1=O the inhibition was 5.98% (inactive).

With CSc1nc(N)c(N=Nc2ccc([As](=O)(O)O)cc2)c(=O)[nH]1 the inhibition was 15.9%.

CC1(C)CC(=O)C(/C=N/n2cnc3ccccc3c2=O)=C(O)C1 was tested, and the inhibition was 7.64% (inactive).

With Cc1nc(SCc2ccc(O)c([N+](=O)[O-])c2)n[nH]1 the inhibition was 0.762% (inactive).

In the case of CCn1c(SCC(=O)Nc2cc(F)ccc2C)nnc1-c1ccccc1O, the inhibition is reported as -18.5% (inactive).

CCNC(=O)C1CC(=O)N(Cc2ccc3c(c2)OCO3)C(=Nc2ccc(F)cc2)S1 (stereo not given) was tested, and the inhibition was -9.04% (inactive).

For Cn1ncc(Cl)c1C(=O)Nc1cccc(Cl)c1, the inhibition was -11% (inactive).

O=C(c1ccco1)N1CCN(C2CC(=O)N(c3ccc4c(c3)OCO4)C2=O)CC1 (stereo not given) was tested, and the inhibition was -17% (inactive).

With COc1ccc(C(=O)NCCN2CCOCC2)cc1OC the inhibition was -19.6% (inactive).

In the case of O=C1C=C(c2ccc(Cl)cc2)OC2(CCCC2)O1, the inhibition is reported as -10.7% (inactive).

In the case of OC(CNCC1CCCO1)Cn1c2ccc(Br)cc2c2cc(Br)ccc21 (stereo not given), the inhibition is reported as -2.62% (inactive).

In the case of CC1(C)CC(=O)C(C=Nc2ccc(Cl)cn2)=C(O)C1, the inhibition is reported as -4.84% (inactive).

For COc1ccc(S(=O)(=O)NCCC(=O)NCc2ccc(F)cc2)cc1, the inhibition was -20.3% (inactive).

In the case of CC(=O)NC(C)c1nc2ccccc2n1Cc1ccccc1F (stereo not given), the inhibition is reported as -16.7% (inactive).

In the case of COc1ccccc1C(=O)NC(C)C(c1cccs1)N1CCOCC1 (stereo not given), the inhibition is reported as -25.9% (inactive).

For Cc1cc(N=CC2=C(O)CCCC2=O)no1, the inhibition was -4.93% (inactive).

COc1cc(S(=O)(=O)Nc2ncccc2C)c(OC)cc1Cl was tested, and the inhibition was -4.1% (inactive).

With CCCCCCN1C=CC=C/C1=C/C=C(C#N)C#N the inhibition was 6.58% (inactive).

In the case of COc1ccccc1NC(=O)c1cc(S(=O)(=O)N2CCOCC2)ccc1Cl, the inhibition is reported as -16.1% (inactive).

In the case of Cc1cccc(-n2c(O)c(/C=C/C=Nc3ccccc3)c(=O)[nH]c2=O)c1, the inhibition is reported as 14.2%.

In the case of CCOC(=O)c1c(/N=C/C2=C(O)CCCC2=O)sc(C)c1C, the inhibition is reported as -13.1% (inactive).

With O=C1CC(=C2c3ccccc3-c3ccccc32)C(=O)N1CCCCN1CCN(c2ccccc2)CC1 the inhibition was 9.51% (inactive).

For O=C(CN1C(=O)c2ccccc2C1=O)Nc1sc2c(c1C(=O)NCc1ccco1)CCCC2, the inhibition was -11.4% (inactive).

O=C(COC(=O)c1ccc[nH]c1=O)NCC1CCCO1 (stereo not given) was tested, and the inhibition was -31.2% (inactive).

O=C(CCN1C(=O)c2ccccc2C1=O)N(CCO)Cc1ccccc1 was tested, and the inhibition was -16.7% (inactive).

COc1cc(/C=C/C(=O)OCC(=O)NC(=O)NC(C)C)ccc1O was tested, and the inhibition was 3.94% (inactive).

For O=C(C1Cc2ccccc2CN1S(=O)(=O)c1cccs1)N1CCCCC1 (stereo not given), the inhibition was -7.18% (inactive).

In the case of CCOC(=O)C(C(=O)NCC1CCCO1)C1CCCCC1 (stereo not given), the inhibition is reported as -17.6% (inactive).

For NC(=O)c1ccccc1N/C=C/C(=O)c1ccc(F)cc1, the inhibition was -9.67% (inactive).

CNc1nc(NCCOC23CC4CC(CC(C4)C2)C3)nc(OCC(F)(F)F)n1 was tested, and the inhibition was -19.7% (inactive).

In the case of CCCOP(=O)(c1ccc(N(C)C)cc1)C(Nc1ccccc1)c1ccc(N(C)C)cc1 (stereo not given), the inhibition is reported as 31.5%.

In the case of O=C1CC(N2CCC(c3nc4ccccc4o3)CC2)C(=O)N1Cc1cccs1 (stereo not given), the inhibition is reported as -13.2% (inactive).

For CCCCCc1nnc(NC(=O)C2CCCO2)s1 (stereo not given), the inhibition was -22.1% (inactive).

Molecule CCN1CCS/C1=C\C=C\C1=[N+](CC)CCS1 has an inhibition of 63.4%.

For Cc1cc(Cl)ccc1OCCCC(=O)N1CCOCC1, the inhibition was -18.9% (inactive).

For COc1cc(C(=O)Nc2ccc(-c3nnc(-c4ccco4)o3)cc2)cc(OC)c1OC, the inhibition was -21% (inactive).
